The source of these data is patent publication US10047080B2, “(R)-2-methyl-piperazine derivatives as CXCR3 receptor modulators” (Idorsia Pharmaceuticals Ltd., priority 2015, dated 2018).

Holding throughout (format): cell-based
For one data set, the target named is CXCR3 (Homo sapiens (Human), UniProt P49682). As to the kind of experiment: Receptor internalization assay (RIA) in human whole blood. Particulars: final CXCL10 9 nM, CXCR3 surface expression on CD4 positive cells. How it is done: Stock solutions of test compounds are made up at a concentration of 10 mM in DMSO, and serially diluted in PBS containing 0.5% BSA to concentrations required for inhibition dose response curves. Diluted compounds are then mixed with an equal volume of CXCL10 (Peprotech) diluted in PBS. Anticoagulated venous human whole blood is added to the mixture, which is then incubated in a CO2 incubator at 37° C. to allow for ligand mediated receptor internalization (final CXCL10 concentration is 9 nM). After 30 min, the blood is mixed with fluorescently labeled CXCR3 and CD4 specific antibodies (Becton Dickinson) and incubated on ice for 10 minutes. Samples are then mixed with BD FACS Lysing Solution (Becton Dickinson) in order to eliminate red blood cells. After washing the cells with PBS containing 0.5% BSA, the samples are then analyzed in a flow cytometer (FACS Canto II, Becton Dickinson). For data analysis using FACSDiva software (Becton Dickinson), the mean fluorescence corresponding to CXCR3 cell surface expression was determined on CD4 positive cells.
Chain of CXCR3 (P49682 whole entry): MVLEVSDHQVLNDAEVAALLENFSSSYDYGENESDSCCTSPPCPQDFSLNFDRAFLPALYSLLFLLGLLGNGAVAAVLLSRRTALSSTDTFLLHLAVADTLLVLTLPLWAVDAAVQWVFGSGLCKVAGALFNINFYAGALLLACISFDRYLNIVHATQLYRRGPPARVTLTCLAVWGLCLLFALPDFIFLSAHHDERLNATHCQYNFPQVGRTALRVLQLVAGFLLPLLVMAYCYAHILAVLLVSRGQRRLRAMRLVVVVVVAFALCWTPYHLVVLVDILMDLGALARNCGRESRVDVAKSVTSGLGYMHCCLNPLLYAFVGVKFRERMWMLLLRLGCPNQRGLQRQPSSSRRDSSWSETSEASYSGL
(§1) The calculated IC50 values may fluctuate depending on the daily assay performance. Fluctuations of this kind are known to those skilled in the art. In the case where IC50 values have been determined several times for the same compound, mean values are given. Data for the FLIPR assay are shown in Table 1 and for the receptor internalization assay (RIA) in Table 2.

A further data set addresses human CXCR3A (Homo sapiens (Human), UniProt P49682). As to the kind of experiment: FLIPR assay (calcium flux, CXCL10-induced). Particulars: CHO-K1 cells expressing human CXCR3A coupled to Galpha(16); CXCL10 agonist at 20 nM. How it is done: The bioactivity of compounds is tested in a fluorometric imaging plate reader (FLIPR: Molecular Devices) using engineered CHO-K1 cells expressing the human CXCR3A (GenBank: AY242128) coupled to a G protein (Galpha(16)). Cells are plated the day prior to bioassay in F12 medium supplemented with 10% FBS and G418 and hygromycin antibiotics to maintain recombinant selection. At the day of bioassay, cells are washed and dye loaded for one hour with Fluo-4-AM (Invitrogen) in Hanks Balanced Salt Solution (Invitrogen), buffered with 20 mM Hepes at pH 7.4 and sodium bicarbonate (0.038%), containing 5 mM probenecid. This buffer, but lacking the dye and containing probenecid at a concentration of 2.5 mM, is also used for washing steps (wash buffer); or lacking both dye and probenecid but supplemented with 0.1% BSA for compound dilution steps (dilution buffer). Cells are washed free of excess dye and 60 microliter of wash buffer is added. Stock solutions of test compounds are made up at a concentration of 10 mM in DMSO, and serially diluted in dilution buffer to concentrations required for inhibition dose response curves. After a 10 minute incubation period at 37° C., 10 microliters of each compound dilution are transferred from a compound plate to the plate containing the recombinant cells in the FLIPR instrument according to the manufacturer's instructions. Following basal readings, 10 microliter CXCL10 agonist at a concentration of 20 nM (from Peprotech) is added, again using the FLIPR instrument. Changes in fluorescence are monitored before and after addition of the test compounds. Emission peak values above base level after CXCL10 addition are exported after base line subtraction.
as §1

The target of another data set is hERG K channel (Homo sapiens (Human), UniProt Q12809). Kind of data set: hERG Q-Patch assay. To be noted: CHO cells expressing hERG, K+ tail current. The method, then: Compounds are evaluated for block of the hERG K channel using CHO cells stably expressing the hERG gene (accession number U04270, bSys, Witterswil, Switzerland) and the QPatch robotic platform (Sophion, Ballerup, Denmark) in single-cell mode at room temperature. Cells are grown in culture flasks at 37° C. in 5% CO2, in culture medium (Ham's F-12 Nutrient Mixture, Invitrogen 21765-029) supplemented with 9% (v/v) fetal calf serum, 0.9% Penicillin/Streptomycin (10,000 U/mL, Invitrogen 15140148), 100 μg/mL Hygromycin B (Invitrogen 10687010). When the cells are ˜80% confluent (every 2-3 days), they are either split for further culture or used for electrophysiology. For further culture, cells are detached with 0.25% Trypsin EDTA solution (Invitrogen 25200-056) and a fraction of the cells (10-30%) is reseeded in culture medium. For electrophysiology, on the experimental day, cells are detached with 0.25% Trypsin EDTA solution and all cells are suspended in suspension medium (293 SFM II, Invitrogen 11686-029) supplemented with 20 mM HEPES and 0.04 mg/mL Trypsin inhibitor. Cells are kept in suspension medium at 32-35° C. in the QPatch robot until use, at which time aliquots are transferred to the extracellular solution (in mM: NaCl 150; KCl 4; CaCl2 1.2; MgCl2 1; HEPES 10; pH 7.4 with NaOH) containing 0.3% v/v DMSO and applied to the test plates. K+ currents are measured with the patch-voltage-clamp technique in the whole-cell configuration with the internal solution (in mM: KCl, 140; NaCl, 10; MgCl2, 1; HEPES, 10; EGTA, 5; pH=7.2 with KOH). Currents are low-pass filtered using the internal Bessel filter of the QPatch robot with a cut-off frequency of 2 kHz and are digitized at 10 kHz. K^+ tail currents are produced from a holding voltage of −80 mV by a 500-ms depolarization to +20 mV followed by a 500-ms repolarization to −40 mV; tail current amplitudes are measured at the end of the repolarization to −40 mV. The pulse pattern is repeated every 10 sec during the experiment, baseline K^+ current is measured after 3 min in extracellular solution, test-solution containing compound is then applied, and K^+ current in presence of compound is measured 3 minutes after application to the cells. The respective test-solution is prepared by (1) dissolving the test-compound in pure DMSO, (2) diluting this DMSO solution in extracellular solution, and (3) adding further DMSO, such that the final test-solution has a concentration of either 300 nM or 3000 nM of the test-compound and contains 0.3% v/v DMSO. Compound effects are quantified as % block by dividing the current in presence of compound by the baseline current; two or three experiments are performed for each compound and the final value represents the mean of the results of each experiment.
Chain of hERG K channel (Q12809 whole entry): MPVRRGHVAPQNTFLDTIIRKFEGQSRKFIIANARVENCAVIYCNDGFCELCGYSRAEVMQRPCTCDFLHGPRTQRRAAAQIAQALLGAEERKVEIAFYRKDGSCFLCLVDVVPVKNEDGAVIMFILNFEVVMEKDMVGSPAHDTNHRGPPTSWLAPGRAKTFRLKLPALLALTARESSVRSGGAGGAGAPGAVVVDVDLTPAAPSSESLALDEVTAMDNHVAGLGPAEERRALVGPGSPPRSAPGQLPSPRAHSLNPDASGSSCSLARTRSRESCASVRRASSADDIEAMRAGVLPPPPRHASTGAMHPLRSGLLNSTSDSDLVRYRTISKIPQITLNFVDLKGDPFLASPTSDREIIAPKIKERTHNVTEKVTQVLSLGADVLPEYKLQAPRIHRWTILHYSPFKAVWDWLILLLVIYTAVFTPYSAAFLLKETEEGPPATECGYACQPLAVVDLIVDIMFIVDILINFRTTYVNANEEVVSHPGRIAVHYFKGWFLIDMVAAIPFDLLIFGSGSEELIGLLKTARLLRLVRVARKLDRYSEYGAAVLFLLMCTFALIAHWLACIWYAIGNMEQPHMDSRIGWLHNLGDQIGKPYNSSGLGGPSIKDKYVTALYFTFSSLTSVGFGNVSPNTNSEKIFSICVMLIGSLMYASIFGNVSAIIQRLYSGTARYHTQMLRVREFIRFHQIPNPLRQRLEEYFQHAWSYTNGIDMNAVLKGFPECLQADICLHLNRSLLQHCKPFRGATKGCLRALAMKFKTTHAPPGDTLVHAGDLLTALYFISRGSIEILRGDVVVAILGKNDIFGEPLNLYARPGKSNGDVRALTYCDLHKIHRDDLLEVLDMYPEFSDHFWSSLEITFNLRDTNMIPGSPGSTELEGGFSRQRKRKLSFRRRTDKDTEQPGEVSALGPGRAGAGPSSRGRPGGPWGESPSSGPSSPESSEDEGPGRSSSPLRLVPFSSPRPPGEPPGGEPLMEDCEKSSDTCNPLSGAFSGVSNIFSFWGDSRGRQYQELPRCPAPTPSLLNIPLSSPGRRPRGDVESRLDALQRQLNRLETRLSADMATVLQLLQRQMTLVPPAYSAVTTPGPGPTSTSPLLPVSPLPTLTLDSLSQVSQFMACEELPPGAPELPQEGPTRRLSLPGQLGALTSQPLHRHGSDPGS
Background: The hERG channel carries a current that helps repolarise heart muscle cells.

Broadly, the pIC50 is the IC50 on a negative log10 scale, so that one unit is a factor of ten.

pIC50: −log10 of the molar value.

Chain of human CXCR3A (P49682 whole entry): as the sequence (P49682 whole entry) above

Consider `CC(O)c1ncn(CC(=O)N2CCN(c3sc(C(F)(F)F)nc3-c3cnc(C(F)(F)F)nc3)C[C@H]2C)n1` (stereo partly drawn) [Example 12, 2-[3-(1-Hydroxy-ethyl)-[1,2,4]triazol-1-yl]-1-{(R)-2-methyl-4-[2-trifluoromethyl-4-(2-trifluoromethyl-pyrimidin-5-yl)-thiazol-5-yl]-piperazin-1-yl}-ethanone], for which the pIC50 is 6.25 at CXCR3 and 9.05 at human CXCR3A. Further, the “% block” value on hERG K channel (concentration 300 nM) was found to be 0%; on hERG K channel (concentration 3000 nM), 4%.

`C[C@@H]1CN(c2sc(C(F)(F)F)nc2-c2cnc(C(F)(F)F)nc2)CCN1C(=O)Cn1cnc(C(C)(C)O)n1` [Example 13, 2-[3-(1-Hydroxy-1-methyl-ethyl)-[1,2,4]triazol-1-yl]-1-{(R)-2-methyl-4-[2-trifluoromethyl-4-(2-trifluoromethyl-pyrimidin-5-yl)-thiazol-5-yl]-piperazin-1-yl}-ethanone]: the pIC50 at CXCR3 is 6.08; at human CXCR3A, 8.49. Also, the figures for the “% block” value at hERG K channel (concentration 300 nM) and on hERG K channel (concentration 3000 nM) were 10% and 21%, respectively.

For the molecule `CC(C)c1ncn(CC(=O)N2CCN(c3sc(C(F)(F)F)nc3-c3cnc(OC4CCC4)nc3)C[C@H]2C)n1` [Example 14, 1-{(R)-4-[4-(2-Cyclobutoxy-pyrimidin-5-yl)-2-trifluoromethyl-thiazol-5-yl]-2-methyl-piperazin-1-yl}-2-(3-isopropyl-[1,2,4]triazol-1-yl)-ethanone], the pIC50 is 6.34 at CXCR3 and 8.92 on human CXCR3A. Also, the “% block” value at hERG K channel (concentration 300 nM) stood at 4%; on hERG K channel (concentration 3000 nM) it was 27%.

As to `CCc1ncn(CC(=O)N2CCN(c3sc(C(F)(F)F)nc3-c3cnc(C4CC4)nc3)C[C@H]2C)n1` [Example 15, 1-{(R)-4-[4-(2-Cyclopropyl-pyrimidin-5-yl)-2-trifluoromethyl-thiazol-5-yl]-2-methyl-piperazin-1-yl}-2-(3-ethyl-[1,2,4]triazol-1-yl)-ethanone], the pIC50 was 6.72 against CXCR3 and 8.60 at human CXCR3A. The “% block” value on hERG K channel (concentration 300 nM) stood at 3%; at hERG K channel (concentration 3000 nM) it was 27%.

With `CC(C)c1ncn(CC(=O)N2CCN(c3sc(C(F)(F)F)nc3-c3cnc(C4CC4)nc3)C[C@H]2C)n1` [Example 16, 1-{(R)-4-[4-(2-Cyclopropyl-pyrimidin-5-yl)-2-trifluoromethyl-thiazol-5-yl]-2-methyl-piperazin-1-yl}-2-(3-isopropyl-[1,2,4]triazol-1-yl)-ethanone], the pIC50 against CXCR3 was 6.28; on human CXCR3A, 9.15. The “% block” value at hERG K channel (concentration 300 nM) was 1%; at hERG K channel (concentration 3000 nM) it was 25%.

`C[C@@H]1CN(c2sc(C(F)(F)F)nc2-c2cnc(C3CC3)nc2)CCN1C(=O)Cn1cnc(C(C)(C)C)n1` [Example 17, 2-(3-tert-Butyl-[1,2,4]triazol-1-yl)-1-{(R)-4-[4-(2-cyclopropyl-pyrimidin-5-yl)-2-trifluoromethyl-thiazol-5-yl]-2-methyl-piperazin-1-yl}-ethanone]: the pIC50 at CXCR3 was 6.17; on human CXCR3A, 8.34. Further, the “% block” value is 0% on hERG K channel (concentration 300 nM) and 23% at hERG K channel (concentration 3000 nM).

As for `COCc1ncn(CC(=O)N2CCN(c3sc(C(F)(F)F)nc3-c3cnc(C4CC4)nc3)C[C@H]2C)n1` [Example 18, 1-{(R)-4-[4-(2-Cyclopropyl-pyrimidin-5-yl)-2-trifluoromethyl-thiazol-5-yl]-2-methyl-piperazin-1-yl}-2-(3-methoxymethyl-[1,2,4]triazol-1-yl)-ethanone], the pIC50 was 5.86 against CXCR3 and 8.51 at human CXCR3A. In addition, the “% block” value at hERG K channel (concentration 300 nM) worked out at 10%; on hERG K channel (concentration 3000 nM), 22%.

For `CCOc1ncc(-c2nc(C(F)(F)F)sc2N2CCN(C(=O)Cn3cnc(C)n3)[C@H](C)C2)cn1` [Example 19, 1-{(R)-4-[4-(2-Ethoxy-pyrimidin-5-yl)-2-trifluoromethyl-thiazol-5-yl]-2-methyl-piperazin-1-yl}-2-(3-methyl-[1,2,4]triazol-1-yl)-ethanone], the pIC50 against CXCR3 is 6.68; at human CXCR3A, 8.74. Moreover, the “% block” value at hERG K channel (concentration 300 nM) is reported as 9%; on hERG K channel (concentration 3000 nM) it was 14%.

Take `Cc1ncn(CC(=O)N2CCN(c3sc(C(F)(F)F)nc3-c3cnc(C(F)(F)F)nc3)C[C@H]2C)n1` [Example 20, 2-(3-Methyl-[1,2,4]triazol-1-yl)-1-{(R)-2-methyl-4-[2-trifluoromethyl-4-(2-trifluoromethyl-pyrimidin-5-yl)-thiazol-5-yl]-piperazin-1-yl}-ethanone]: the pIC50 is 6.72 against CXCR3 and 8.80 at human CXCR3A. Also, the “% block” value was determined as 2% on hERG K channel (concentration 300 nM) and 18% at hERG K channel (concentration 3000 nM).

Take `Cc1ncn(CC(=O)N2CCN(c3sc(C(F)(F)F)nc3-c3cnc(C4CC4)nc3)C[C@H]2C)n1` [Example 21, 1-{(R)-4-[4-(2-Cyclopropyl-pyrimidin-5-yl)-2-trifluoromethyl-thiazol-5-yl]-2-methyl-piperazin-1-yl}-2-(3-methyl-[1,2,4]triazol-1-yl)-ethanone]: the negative logarithm of the IC50 (pIC50) is 6.34 against CXCR3 and 8.28 on human CXCR3A. Further, the results for the “% block” value at hERG K channel (concentration 300 nM) and at hERG K channel (concentration 3000 nM) were 3% and 17%, respectively.
